Source: US9096539B2, “Substituted 4,5-dihydro-2H-benzo[e]indazole-9-carboxylates for the treatment of diabetes and related disorders” (Council of Scientific & Industrial Research, priority 2012, dated 2015)
Read-outs that look alike come from different tables or passages of the source.

What was measured:
[1] = target: T1, human recombinant PTP1B enzyme (Homo sapiens, UniProt P18031); experiment: Protein tyrosine phosphatase-1B assay (colorimetric kit BML-AK 822); type: biochemical; details: read-out: % Inhibition (PTP-1B)
T1 construct: purchased Enzo Life Sciences, USA BML-AK 822
T1 sequence (P18031 1-322 limits assumed): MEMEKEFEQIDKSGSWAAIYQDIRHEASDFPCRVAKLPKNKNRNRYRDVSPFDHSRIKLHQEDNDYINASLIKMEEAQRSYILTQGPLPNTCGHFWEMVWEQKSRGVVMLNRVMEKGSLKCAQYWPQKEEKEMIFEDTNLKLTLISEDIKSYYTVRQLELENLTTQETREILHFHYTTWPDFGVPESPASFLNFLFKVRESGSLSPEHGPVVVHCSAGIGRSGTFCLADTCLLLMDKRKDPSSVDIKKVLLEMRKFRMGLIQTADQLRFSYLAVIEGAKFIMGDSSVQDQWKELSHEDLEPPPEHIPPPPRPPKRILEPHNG
Method: Assay was done according to the Kit manufacturers protocol, in brief the reaction was carried out in 96 well flat bottomed microtiter plate by the addition of assay buffer, solution of test compounds and diluted PTP1B enzyme. Enzyme reaction was initiated by addition of 50 μl of warmed 2× substrate then incubated the plate at 30° C. for 30 min. After incubation for 30 min. Reaction was terminated by addition of 25 μl of biomol red reagent and mixed thoroughly by repeated pipetting. […] Volumes and dilution of other component were accordingly as instructed in the manual provided in the kit. PTP1B phosphatase acting on the phosphopeptide substrate and release phosphate. The detection of free phosphate released is based on classic Malachite green assay. After adding biomol red to reaction wells after 30 minutes of incubation as described earlier the plate was incubated for another 20 min to develop the colour. Absorbance was recorded at 620 nm. on a microplate reader.

[2] = Table 5, evaluated at 10 μM concentration

SMILES | melting point [°C] | inhibition at 10 µM [1, 2] [%] | inhibition at 10 µM [1] [%]
COC(=O)c1c(SC)cc(-c2ccc3ccc4cccc5ccc2c3c45)c2c1-c1cn(-c3ccccc3)nc1CC2 [compound 9, methyl 8-(methylthio)-2-phenyl-6-(pyren-1-yl)-4,5-dihydro-2H-benzo[e]indazole-9-carboxylate] | 174 to 176 |  | 10.7
COC(=O)c1c(S(C)(=O)=O)cc(-c2ccc(F)cc2)c2c1-c1cn(-c3ccccc3)nc1CC2 [compound 10, methyl 6-(4-fluorophenyl)-8-(methylsulfonyl)-2-phenyl-4,5-dihydro-2H-benzo[e]indazole-9-carboxylate] | 245 to 247 | 1.52 | 

More lines, main results first:

melting point [°C] | inhibition at 10 µM [1, 2] [%] | SMILES | inhibition at 10 µM [1] [%]
182 to 184 | 14.6 | COC(=O)c1c(SC)cc(-c2ccc(F)cc2)c2c1-c1cn(-c3ccccc3)nc1CC2 [compound 8, methyl 6-(4-fluorophenyl)-8-(methylthio)-2-phenyl-4,5-dihydro-2H-benzo[e]indazole-9-carboxylate] | 
204 to 206 | 18.8 | COC(=O)c1c(S(C)(=O)=O)cc(-c2cccc3ccccc23)c2c1-c1cn(-c3ccccc3)nc1CC2 [compound 11, methyl 8-(methylsulfonyl)-6-(naphthalen-1-yl)-2-phenyl-4,5-dihydro-2H-benzo[e]indazole-9-carboxylate] | 
228 to 230 | 26.4 | COC(=O)c1c(S(C)(=O)=O)cc(-c2ccc(C)cc2)c2c1-c1cn(-c3ccccc3)nc1CC2 [compound 12, methyl 8-(methylsulfonyl)-2-phenyl-6-(p-tolyl)-4,5-dihydro-2H-benzo[e]indazole-9-carboxylate] | 
